Data reported in patent US10159675B2, “Cycling therapy using 3-(5-amino-2-methyl-4-oxo-4H-quinazolin-3-yl)-piperidine-2,6-dione” (Celgene Corporation, priority 2015, dated 2018).

Experiments:
[1] = system: patients with relapsed or refractory DLBCL; assay: Clinical study: dose-limiting toxicities, adverse events, dose modifications
Source text: Adverse events (AEs) were graded by NCI CTCAE v4.0, and responses were investigator assessed using International Workshop criteria for NHL.

Memory T cells = assay: Clinical study: lymphocyte phenotyping by flow cytometry; format: in vivo, human; details: cycle 1, day 22, peripheral blood, 5/7 d schedule
Experimental: (§1) Sample Analysis • Aiolos was measured by flow cytometry on samples of whole blood drawn at 0 hours (pre-dose) and at 1.5 and 5 hours post-dose on cycle 1, day 1 • Archival or screening formalin-fixed paraffin-embedded (FFPE) tissues were stained for MYC and BCL2 expression6 on a Bond-Max automated slide stainer (Leica Microsystems, Buffalo Grove, Ill.) • Pathology review was performed on a hematoxylin and eosin stained slides to identify the area of DLBCL • RNA extraction and NanoString nCounter Analysis System lymphoma subtyping test (Seattle, Wash.) were performed as reported previously7 on core needle and excisional biopsy samples • For lymphocyte phenotyping, whole blood was drawn pre-dose (baseline) and 1.5 hours post-dose on cycle 1 day 15, cycle 1 day 22, cycle 2 day 15, and cycle 2 day 22 • Memory T cells ([…]) were measured by flow cytometry.

[2] = system: Human CD34+ bone marrow cells; assay: In vitro myeloid differentiation assay; format: cell-based; set-up: dose or concentration left out as unconfirmed; details: after 14 days
Experimental: Human CD34+ bone marrow cells were seeded in stem cell factor, Fms-like tyrosine kinase 3 ligand (F1t3L) and granulocyte colony-stimulating factor (G-CSF), followed by 6 days with media plus G-CSF. Compound 1 […] was added continuously or on a 5-of-7-day (5/7 d) schedule. After 14 days, myeloid maturation stages were measured by CD34, CD33, and CD11b flow cytometry.

[3] = system: patients with relapsed or refractory DLBCL; assay: Clinical study: response (International Workshop criteria for NHL), by schedule and biomarker; format: in vivo, human
Experimental: as §1

[4] = AEs occurring in >20% of patients, 3 mg 28/28 d (n = 25)
[5] = AEs occurring in >20% of patients, 4 mg 5/7 d (n = 21)
[6] = Grade 3/4 AEs occurring in >1 patient, 3 mg 28/28 d (n = 25)
[7] = Grade 3/4 AEs occurring in >1 patient, 4 mg 5/7 d (n = 21)
[8] = 4 mg 5/7 d DLBCL-2 cohort (n=17)
[9] = 5 mg 5/7 d DLBCL-2 cohort (n=3)

For Cc1nc2cccc(N)c2c(=O)n1C1CCC(=O)NC1=O (stereo not drawn) [Compound 1, 3-(5-amino-2-methyl-4-oxo-4H-quinazolin-3-yl)-piperidine-2,6-dione], the “Relative dose intensity (median)” value ([1]; 3 mg 28/28 d (daily continuously, n = 25)) was 78.6%, the “DLTs (kind): febrile neutropenia” value ([1]; 3 mg qd) was “Grade 3 febrile” and the “DLTs (kind): neutropenia” value ([1]; 3 mg qd) was “Grade 4”. The “DLTs (kind): sepsis” value ([1]; 3 mg qd) was “Grade 4 sepsis”, the “AE asthenia, patients” value ([1]; 4 mg 5/7 d) was 29% and the “AE constipation, patients” value ([1]; 4 mg 5/7 d) was 29%. The “AE neutropenia, patients” value ([1]; 4 mg 5/7 d) was 52%, the “AE pyrexia, patients” value ([1]; 4 mg 5/7 d) was 57% and the “DLTs (kind): neutropenia” value ([1]; 4 mg 5/7 d) was “Grade 4”. For the same compound, the “serious treatment-related AE neck pain” value ([1]; 4 mg 5/7 d) was 5%, the “serious treatment-related AE pneumonia” value ([1]; 4 mg 5/7 d) was 5% and the “serious treatment-related AE pneumonitis” value ([1]; 4 mg 5/7 d) was 5%. The “Relative dose intensity (median)” value ([1]; 4 mg 5/7 d (n = 21)) was 97.5%, the DLTs reported ([1]; 4 mg 5/7 d, DLBCL-2 expansion, 19 DLT-evaluable patients) was “No DLTs” and the “dose-limiting toxicities during cycle 1” value ([1]; 4 mg, 21/28 d cohort (n=3)) was “no dose-limiting toxicities”. The “patients requiring subsequent dose reduction due to grade 4 neutropenia” value ([1]; 4 mg, 21/28 d cohort (n=3)) was 3 patients, the “DLTs (kind): febrile neutropenia” value ([1]; 5 mg 5/7 d) was “Grade 3” and the “DLTs (kind): pneumonitis” value ([1]; 5 mg 5/7 d) was “Grade 3”. The MTD ([1]; 5/7 d schedule) was 4 mg, the NTD ([1]; 5/7 d schedule) was 5 mg and the severity of neutropenia ([1]; 5/7 d schedule (FIG. 2)) was “mitigated”. For the same compound, the “non-tolerated dose (NTD)” value ([1]; 21/28 d schedule) was 4 mg, the Anemia [1, 4] was 13 (52) n (%) and the Appetite [1, 4] was 1 (4) n (%). For the same compound, the Arrhythmia [1, 4] was 0 n (%), the Asthenia [1, 4] was 14 (56) n (%) and the Constipation [1, 4] was 4 (16) n (%). The Cough [1, 4] was 10 (40) n (%), the Decreased [1, 4] was 3 (12) n (%) and the Diarrhea [1, 4] was 5 (20) n (%). For the same compound, the Dyspnea [1, 4] was 4 (16) n (%), the Nausea [1, 4] was 4(16) n (%) and the Neutropenia [1, 4] was 19 (76) n (%). For the same compound, the Peripheral edema [1, 4] was 7 (28) n (%), the Pyrexia [1, 4] was 10 (40) n (%) and the Thrombocytopenia [1, 4] was 9 (36) n (%). The Vomiting [1, 4] was 4 (16) n (%), the Anemia [1, 5] was 5 (24) n (%) and the Appetite [1, 5] was 3 (14) n (%). The Arrhythmia [1, 5] was 2 (10) n (%), the Asthenia [1, 5] was 6 (29) n (%) and the Constipation [1, 5] was 6 (29) n (%). The Cough [1, 5] was 2 (10) n (%), the Decreased [1, 5] was 3 (14) n (%) and the Diarrhea [1, 5] was 3 (14) n (%). The Dyspnea [1, 5] was 5 (24) n (%), the Nausea [1, 5] was 5 (24) n (%) and the Neutropenia [1, 5] was 11 (52) n (%). The Peripheral edema [1, 5] was 4 (19) n (%), the Pyrexia [1, 5] was 12 (57) n (%) and the Thrombocytopenia [1, 5] was 5 (21) n (%). For the same compound, the Vomiting [1, 5] was 5 (24) n (%), the “DLTs, n (%)” value ([1]; DLBCL-2, 4 mg 5/7 d, 19 DLT evaluable) was 0 n (%) and the “DLTs, n (%)” value ([1]; DLBCL-2, 4 mg 21/28 d, 3 DLT evaluable) was 0 n (%). The “DLTs, n (%)” value ([1]; DLBCL-2, 5 mg 5/7 d, 5 DLT evaluable) was 2 (40) n (%), the Anemia [1, 6] was 3 (12) n (%) and the Appetite [1, 6] was 0 n (%). For the same compound, the Arrhythmia [1, 6] was 0 n (%), the Asthenia [1, 6] was 5 (20) n (%) and the Constipation [1, 6] was 0 n (%). For the same compound, the Cough [1, 6] was 0 n (%), the Decreased [1, 6] was 0 n (%) and the Diarrhea [1, 6] was 0 n (%). For the same compound, the Dyspnea [1, 6] was 0 n (%), the Nausea [1, 6] was 0 n (%) and the Neutropenia [1, 6] was 16 (64) n (%). The Peripheral edema [1, 6] was 0 n (%), the Pyrexia [1, 6] was 0 n (%) and the Thrombocytopenia [1, 6] was 3 (12) n (%). The Vomiting [1, 6] was 0 n (%), the Anemia [1, 7] was 0 n (%) and the Appetite [1, 7] was 0 n (%). The Arrhythmia [1, 7] was 2 (7) n (%), the Asthenia [1, 7] was 0 n (%) and the Constipation [1, 7] was 0 n (%). The Cough [1, 7] was 0 n (%), the Decreased [1, 7] was 0 n (%) and the Diarrhea [1, 7] was 0 n (%). For the same compound, the Dyspnea [1, 7] was 0 n (%), the Nausea [1, 7] was 0 n (%) and the Neutropenia [1, 7] was 8 (38) n (%). The Peripheral edema [1, 7] was 0 n (%), the Pyrexia [1, 7] was 0 n (%) and the Thrombocytopenia [1, 7] was 0 n (%). For the same compound, the Vomiting [1, 7] was 0 n (%), the “DLTs, n (%)” value ([1]; NHL-1, 3 mg qd, 18 DLT evaluable) was 3 (17) n (%) and the “median increase from baseline in cytotoxic memory T cells” value (Memory T cells) was 266%. The “median increase from baseline in helper memory T cells” value (Memory T cells) was 75%, the “decreased mature neutrophils compared with vehicle” value ([2]; continuous exposure) was 90% and the decreased mature neutrophils ([2]; exposure for 5/7 d) was 50%. For the same compound, the “complete responses [CR]” value ([3]; 3 mg 28/28 d cohort (n=22)) was 2, the “overall response rate (ORR)” value ([3]; 3 mg 28/28 d cohort (n=22)) was 27% and the “partial responses [PR]” value ([3]; 3 mg 28/28 d cohort (n=22)) was 4. It also gave a CR [3, 8] of 2, an ORR [3, 8] of 39% and a PR [3, 8] of 5. It also gave a CR [3, 9] of 1, an ORR [3, 9] of 100% and a PR [3, 9] of 2. The “PFS” value ([3]; Cell of Origin ABC) was 99 days, the “PFS” value ([3]; Cell of Origin GCB) was 100 days and the ORR ([3]; Cell of Origin Non-ABC) was 8/27 (30%). For the same compound, the “PFS” value ([3]; Cell of Origin Non-ABC) was 64 days, the ORR ([3]; Cell of Origin Non-GCB) was 6/18 (33%) and the “PFS” value ([3]; Cell of Origin Non-GCB) was 74 days. The “PFS” value ([3]; Cell of Origin Unclassified) was 51 days, the “PFS” value ([3]; MYC/BCL2 dual expressor Negative) was 70 days and the “PFS” value ([3]; MYC/BCL2 dual expressor Positive) was 100 days.
